Source: US11708357B2, “Crystal form of pyrrolidinyl urea derivative and application thereof” (ZHANGZHOU PIEN TZE HUANG PHARMACEUTICAL CO., LTD., priority 2020, dated 2023)

Assays:
TrkA = molecular target: T1, TrkA (Homo sapiens, UniProt P04629); test: TrkA enzyme activity test (HTRF); format: biochemical; settings: 0.5 nM TrkA kinase, 90 μM ATP, 23° C. 90 minutes
T1 construct: purchased Invitrogen PV4114
Description: TK detection kit Cisbio-62TK0PEJ
50 mM Hepes (pH 7.5), 5 mM MgCl2 (magnesium chloride), 0.01 mM orthovanadate (sodium vanadate), 1% BSA (bovine serum albumin), 1 mM (dithiothreitol)
This experiment used Cisbio's homogeneous time-resolved fluorescence resonance energy transfer (HTRF® method) for activity test. In the test plate, the enzyme, biotin-labeled peptide substrate, ATP, and test compound were mixed, and incubated for reaction. After the reaction, ethylenediaminetetraacetic acid was added to terminate the reaction; at the same time, Eu-labeled antibody and streptavidin-labeled XL665 were added for reaction and detection. The data were expressed by the readings of the fluorescence signal at 665 nm and 620 nm, where a high ratio of 665 nm/620 nm indicated higher activity, and a low ratio of 665 nm/620 nm indicated inhibition of activity.
1. […]
2. […] 10 μL of stop solution containing 20 mM EDTA, 1.34 nM phosphorylated substrate antibody, and 100 nM streptavidin-labeled fluorescent molecule XL-665 was then added, incubated at 23° C. for 60 minutes; the signal was read with Envision;
3. The inhibition rate of the compound was calculated from the data read by the instrument, and the IC50 value was calculated using the mode 205 in XLFIT5 of IDBS.

[1] = Plasma protein binding rate (PPB) test, human plasma; format: in vitro ADME; settings: 2 μM, dialysis 37° C. 4 hours
Description: The protein binding rates of the test compound in the plasma of humans and SD rats were determined.
796 μL of blank plasma from humans and SD rats (plasma purchased from BioreclamationIVT) were taken, 4 μL of working solution of the test compound (400 μM) or warfarin working solution (400 μM) was added and the final concentration of the test compound or warfarin was 2 μM. The sample was mixed thoroughly. […] All samples were analyzed by LC/MS/MS after protein precipitation, and the plasma protein unbound rate, binding rate and recovery rate was calculated according to the following formula: % unbound rate=100*free compound concentration at the membrane buffer side/total compound concentration at the membrane plasma side, % protein binding rate=100−% unbound rate, % recovery rate=100*(free compound concentration at the membrane buffer side+total compound concentration at the membrane plasma side)/total compound concentration before dialysis.

[2] = Metabolic stability in human liver microsomes; format: in vitro ADME; settings: pH 7.4, 0.5 mg protein/mL, read-out: Intrinsic clearance rate of liver microsomes, Human
Description: (§1) The metabolic stability of the test compound in human and rat liver microsomes was tested.
(§2) Test compound (10 mM), Testosterone (reference compound, 10 mM), Diclofenac (reference compound, 10 mM) and Propafenone (reference compound, 10 mM).
(§3) 1. 100 mM potassium phosphate buffer (pH 7.4).
(§4) 1. Intermediate solution: 45 μL of DMSO (with 450 μL of 1:1 methanol/water) was used to dilute 5 μL of the sample for test compound or reference compound.
(§5) 2. Working solution: 450 μL of 100 mM potassium phosphate buffer was used to dilute the intermediate solution.
(§6) 10 μL of the working solution of the test compound or reference compound was added to all plates (T0, T5, T10, T20, T30, T60, and NCF60).
(§7) 680 μL of liver microsome solution was added to each well of 96-well plates, then 80 μL was added to each well of the plates, and the plates were placed at 37° C. for pre-incubation for approximately 10 minutes.
(§8) 10 μL of 100 mM potassium phosphate buffer was added to each well of the NCF60 plate.
(§9) After the pre-incubation, 90 μL NADPH regeneration system working solution was added to each well of the 96-well plates, and then 10 μL was added to each well of the plates to initiate the reaction.
(§10) Incubation for an appropriate time (such as 5, 10, 20, 30, and 60 minutes). […]
(§11) The half-life T1/2 and the intrinsic clearance rate by liver microsome Clint(mic) were calculated by the following formulas: Ct=Cij·e^−k^s^·i • when […]

[3] = Metabolic stability in rat liver microsomes; format: in vitro ADME; settings: pH 7.4, 0.5 mg protein/mL, read-out: Intrinsic clearance rate of liver microsomes, Rat
Description: as §1, §2, §3, §4, §5, §6, §7, §8, §9, §10, §11

T1 sequence (P04629 33-796): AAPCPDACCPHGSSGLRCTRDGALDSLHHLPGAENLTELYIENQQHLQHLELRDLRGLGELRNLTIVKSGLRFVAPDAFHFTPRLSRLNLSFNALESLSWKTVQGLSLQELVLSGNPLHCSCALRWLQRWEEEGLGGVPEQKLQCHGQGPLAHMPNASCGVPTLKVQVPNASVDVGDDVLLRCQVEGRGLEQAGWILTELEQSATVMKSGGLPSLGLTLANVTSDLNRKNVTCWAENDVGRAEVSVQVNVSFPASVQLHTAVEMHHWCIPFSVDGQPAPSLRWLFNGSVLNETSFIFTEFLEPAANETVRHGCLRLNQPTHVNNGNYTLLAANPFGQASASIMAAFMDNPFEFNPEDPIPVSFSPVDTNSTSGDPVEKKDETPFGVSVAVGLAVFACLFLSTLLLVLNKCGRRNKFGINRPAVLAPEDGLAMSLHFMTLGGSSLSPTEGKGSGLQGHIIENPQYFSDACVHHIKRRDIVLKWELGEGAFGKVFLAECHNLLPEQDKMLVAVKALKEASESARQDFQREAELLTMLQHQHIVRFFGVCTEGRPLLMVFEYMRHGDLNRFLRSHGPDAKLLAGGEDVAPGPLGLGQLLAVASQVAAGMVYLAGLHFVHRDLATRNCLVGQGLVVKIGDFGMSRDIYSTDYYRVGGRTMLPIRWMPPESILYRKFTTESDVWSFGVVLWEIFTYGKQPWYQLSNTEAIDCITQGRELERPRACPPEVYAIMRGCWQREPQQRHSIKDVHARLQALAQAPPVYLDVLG

IC50 (TrkA): 560 pM
Plasma protein unbound rate, Human plasma [1]: 13.2%
CLint scaled [2]: 51.7 mL/min/kg
CLint scaled [3]: 24.9 mL/min/kg
SMILES: COCCN1C[C@@H](n2ccc(F)c2)[C@H](NC(=O)Nc2c(C)c(-c3cnc(C4(F)COC4)nc3)nn2-c2ccccc2)C1 [Compound of formula (I)]
